From patent US8119646B2, “Fungicide hydroximoyl-tetrazole derivatives” (Bayer CropScience AG, priority 2006, dated 2012) come the findings set out here.

One may read the LogP as a log measure of how a compound divides between an organic and an aqueous phase. Low values mean a more hydrophilic compound, high ones a more lipophilic compound. A word on the chromatographic logP: it is lipophilicity estimated from chromatographic retention. A high value points to higher lipophilicity.

Where two headings read alike, the source gives them in different places.

The data set can be described thus: logP determination by HPLC on a reversed-phase column (C 18), EEC Directive 79/831 Annex V.A8. Particulars: for chromatographic logP: reversed-phase C18 HPLC column. As for the experimental part: Temperature: 40° C.; Mobile phases: 0.1% aqueous formic acid and acetonitrile; linear gradient from 10% acetonitrile to 90% acetonitrile.
[1] abbreviates: HPLC reversed-phase C18, 40° C., 0.1% aqueous formic acid and acetonitrile, gradient 10% to 90% acetonitrile.

`CCCC(=O)Nc1nc(CON=C(Cc2ccccc2)n2nnnc2C)cs1` [Compound 2] gave a LogP under setting [1] of 2.73.

For `Cc1nnnn1C(Cc1ccccc1)=NOCc1csc(NC(=O)Cc2ccccc2)n1` [Compound 6], the LogP under setting [1] is listed as 3.06.

On to `CC(C)C(=O)Nc1ccnc(CON=C(c2ccccc2)c2nnnn2C)n1` [Compound 81], for which the lipophilicity (LogP) under setting [1] turned out to be 2.68.

With `Cc1nnnn1C(=NOCc1cccc(NC(=O)NC2CC2)n1)C1CC1` [Compound 46], the LogP under setting [1] stood at 1.88.

For `COc1ccc(CCNC(=O)Nc2cccc(CON=C(C3CC3)n3nnnc3C)n2)cc1` [Compound 51], the LogP under setting [1] was 2.44.

On to `CCCCCNC(=O)Nc1nc(CON=C(Cc2ccccc2)n2nnnc2C)cs1` [Compound 5], for which the LogP under setting [1] was determined as 3.18.

In turn, `Cc1nnnn1C(Cc1ccccc1)=NOCc1csc(NC(=S)NCc2ccccc2)n1` [Compound 3] displayed a LogP under setting [1] of 3.64.

Molecule `Cc1nnnn1C(Cc1ccccc1)=NOCc1csc(NC(=O)NC(C)(C)C)n1` [Compound 4] showed a LogP under setting [1] of 2.91.

As for `Cc1nnnn1C(=NOCc1nsc(N)n1)c1cccc(Cl)c1` [Compound 65, O-(5-Amino-1,2,4-thiadiazol-3-yl)methyl-(3-chlorophenyl-5-methyltetrazol-1-yl)methanone oxime], the LogP is 2.17.

For the molecule `CCCCCOC(=O)Nc1cccc(CON=C(C2CCCCC2)n2nnnc2C)n1` [Compound 29], under setting [1], the LogP turned out to be 5.

For the molecule `Cc1nnnn1C(=NOCc1cccc(NC(=O)NCCc2ccc(F)cc2)n1)C1CC1` [Compound 44], under setting [1], the LogP came to 2.5.

Under setting [1], `Cc1ccc(C(=NOCc2nsc(NC(=O)Cc3ccccc3)n2)c2nnnn2C)cc1` [Compound 69] registered a LogP of 3.22.

Regarding `COc1ccc(OC(=O)Nc2cccc(CON=C(C3CCCCC3)n3nnnc3C)n2)cc1` [Compound 26], the LogP under setting [1] was 4.16.

Under setting [1], `CCCNC(=O)Nc1cccc(CON=C(C2CC2)n2nnnc2C)n1` [Compound 50] came in with a LogP of 2.09.

With `Cn1nnnc1C(=NOCc1cccc(NC(=O)C(F)(F)F)n1)C1CCCCC1` [Compound 76], under setting [1], the LogP is 3.69.

On to `Cn1nnnc1C(=NOCc1nccc(NC(=O)C(C)(C)C)n1)c1ccccc1` [Compound 79], for which the LogP under setting [1] came out at 3.06.

In the case of `CCCC(=O)Nc1cccc(CON=C(C2CCCCC2)n2nnnc2C)n1` [Compound 33], the LogP under setting [1] is given as 3.55.

Turning to `Cc1nnnn1C(Cc1ccccc1)=NOCc1csc(NC(=O)CCCc2ccccc2)n1` [Compound 9], the LogP under setting [1] is 3.61.

Turning to `Cn1nnnc1C(=NOCc1nccc(N)n1)c1ccccc1` [Compound 77], the LogP under setting [1] was found to be 0.92.

As to `Cc1nnnn1/C(=N/OCc1cccc(N)n1)C1CCCCC1` [Compound 23, O-(2-Aminopyridin-6-yl)methyl-(5-methyltetrazol-1-yl)-cyclohexylmethanone oxime], the chromatographic logP worked out at 1.43.

Under setting [1], `Cn1nnnc1C(=NOCc1cccc(NC(=O)C2CC2)n1)C1CCCCC1` [Compound 73] gave a LogP of 3.2.

As for `Cn1nnnc1C(=NOCc1nccc(NC(=O)C2CC2)n1)c1ccccc1` [Compound 80], under setting [1], the LogP came to 2.5.

In turn, `CCCCCC(=O)Nc1ccnc(CON=C(c2ccccc2)c2nnnn2C)n1` [Compound 78] gave a LogP under setting [1] of 3.46.

The molecule `Cc1nnnn1/C(=N/OCc1cccc(N2C(=O)c3ccccc3C2=O)n1)C1CCCCC1` [Compound 22, O-(2-Phtalimidopyridin-6-yl)methyl-(5-methyltetrazol-1-yl)-cyclohexylmethanone oxime] displayed a chromatographic logP of 3.46.

Molecule `COc1ccc(C(=O)Nc2cccc(CON=C(C3CCCCC3)n3nnnc3C)n2)cc1` [Compound 24] registered a LogP under setting [1] of 3.99.

In turn, `CCCCCC(=O)Nc1cccc(CO/N=C(\C2CCCCC2)n2nnnc2C)n1` [Compound 27, O-(2-n-Pentylcarbonylaminopyridin-6-yl)methyl-(5-methyltetrazol-1-yl)-cyclohexylmethanone oxime] displayed a chromatographic logP of 4.39.

For `Cc1nnnn1C(=NOCc1cccc(N)n1)C1CC1` [Compound 41], the lipophilicity (LogP) under setting [1] was determined as 0.87.

Under setting [1], `Cc1nnnn1C(Cc1ccccc1)=NOCc1csc(NC(=O)C2CCCC2)n1` [Compound 11] came in with a LogP of 3.18.

Under setting [1], `CCCCCC(=O)Nc1cccc(CON=C(c2nnnn2C)C2CCCCC2)n1` [Compound 71] had a LogP of 4.25.

`Cc1nnnn1C(Cc1ccccc1)=NOCc1csc(NC(=O)C(C)(C)C)n1` [Compound 7]: under setting [1], the lipophilicity (LogP) stood at 3.15.

`COCCNC(=O)Nc1cccc(CON=C(C2CCCCC2)n2nnnc2C)n1` [Compound 38] displayed a LogP under setting [1] of 2.78.

Regarding `Cc1nnnn1C(=NOCc1cccc(NC(=O)C(C)(C)C)n1)C1CCCCC1` [Compound 30], the LogP under setting [1] came to 3.96.

For the molecule `Cc1ccc(C(=NOCc2nsc(N)n2)c2nnnn2C)cc1` [Compound 68], the LogP under setting [1] is on record as 2.07.

Turning to `Cc1nnnn1C(=NOCc1cccc(NC(=O)C2CC2)n1)C1CC1` [Compound 48], the LogP under setting [1] turned out to be 2.11.

As for `CCCCCC(=O)Nc1nc(CON=C(Cc2ccccc2)n2nnnc2C)cs1` [Compound 8], the LogP under setting [1] worked out at 3.3.

Consider `CC(C)CC(=O)Nc1ccnc(CON=C(c2ccccc2)c2nnnn2C)n1` [Compound 82], for which the LogP under setting [1] is reported as 3.

Consider `Cc1nnnn1C(Cc1ccccc1)=NOCc1csc(NC(=O)C2CC2)n1` [Compound 1], for which the LogP under setting [1] is reported as 2.56.

`CCCCCC(=O)Nc1cccc(CON=C(CCc2ccccc2)n2nnnc2C)n1` [Compound 17] showed a LogP under setting [1] of 3.84.
